# Values of other authors in publication PMC9486889 (Japanese Journal of Clinical Oncology, 2022).
# Details: pre-clinical study, no reference given; cited from earlier work
smiles,measurement,value
"Nc1cc(F)ccc1NC(=O)c1ccc(CNC(=O)/C=C/c2cccnc2)cc1 [HBI-8000, tucidinostat]",Effect on cardiovascular system including changes in QTc prolongation,did not induce any effect
